Measured values as given in patent US20250186411A1, “Methods of Treating Disorders Associated with Overactivation of IKKB” (The United States Government as represented by the …, priority 2023, published 2025).
pEC50: −log10 of the molar value. Like-named read-outs stand apart in the source and are kept apart here.

Key:
Assay type in all cases: cell-based
[1] = test system: KLF15 promoter (pEZX-FR03hKLF15p human podocytes); test: Half maximal effective concentration (EC50) of KLF15 reporter activity
Method: The EC50 was determined using nonlinear regression and then choosing the equation of Sigmoidal function, 4PL method (X is log(concentration); or the equation of log(agonist) vs. response—variable slope).
(§1) To identify small molecule inducers of KLF15 expression in human podocytes, human podocytes were generated with a dual reporter, firefly luciferase directed at the KLF15 promoter region and renilla luciferase (pEZX-FR03hKLF15p). […] The positive controls were inducers of KLF15 expression, dexamethasone (DEX) and all-trans retinoic acid (atRA), and […] and cell-free wells served as negative controls.

[2] = test system: KLF15 promoter (pEZX-FR03hKLF15p human podocytes); test: KLF15 reporter high-throughput screening assay in human podocytes (firefly/renilla luciferase); conditions: for fold induction at 1 µM: Homo sapiens, read-out: Fold Change (KLF15 reporter activity)
Method: Briefly, these podocytes proliferate under permissive conditions (gamma interferon at 33° C.), but differentiate under nonpermissive conditions (37° C.).
The amplified fragment contains MluI and PmeI RE sites and was subcloned into the MluI and PmeI cloning site of the pEZX-FR03 Firefly luciferase (FLuc) and Renilla luciferase (Rluc) reporter cloning vector (GeneCopoeia) to generate pEZX-FR03hKLF15p. Following verification of the sequence by restriction and μsequencing, the pEZX-FR03hKLF15p construct (which contains a puromycin resistance cassette) was transfected into human podocytes followed by selection in puromycin-containing media for 2 weeks. Surviving podocytes clones were pooled together for further analysis.
The library of compounds from the National Cancer Institute (Approved Oncology Drugs Set VI; Natural Products Set III; Diversity Set V; and Mechanistic Diversity Set II) were added to a final concentration of 1 μM in 0.5% DMSO in the low FBS cell culture media (0.2% FBS) using liquid handling system PipetMax (Gilson). After 24 hours incubation at 37° C., the Luc-Pair™ Duo-Luciferase HT Assay Kit (GeneCopoeia LF015) were used and firefly and renilla luciferase activity was determined using the SpectraMax M3 (Molecular Devices). Positive controls were all-trans retinoic acid (atRA) (1 μM) and dexamethasone (DEX) (1 μM). Negative controls were DMSO and cell-free media.
as §1

human podocytes = test: Cell viability of podocytes (renilla activity, MTS assay); conditions: higher doses (10^4 nM), relative to DMSO
Method: Differentiated pEZX-FR03hKLF5p human podocytes were treated with 25 μg/ml lipopolysaccharide (LPS) or vehicle and 1 μM KLF15 agonist or vehicle control for 24 hours. Firefly and renilla luciferase assay were measured initially to determine relative KLF15 reporter activity.
Differentiated pEZX-FR03hKLF5p human podocytes were treated with 0.4 μg/ml adriamycin (ADR) or vehicle and 1 μM KLF15 agonist or vehicle control for 24 hours. Firefly and renilla luciferase assay were measured initially to determine relative KLF15 reporter activity.
To assess cell viability, the CellTiter 96® AQueous One Solution Reagent (Promega) was added to the culture media and plates were incubated for 2 hours at 37° C. with 5% CO2.

[3] = Homo sapiens, KLF15 reporter activity, dose-response, read-out: EC50
[4] = NCI library hits, 1 μM, 24 hours
[5] = KLF15 reporter activity, dose-response, read-out: EC50

| Molecule | pEC50 [1, 3] | fold induction at 1 µM [2, 4] | also measured |
| --- | --- | --- | --- |
| CN(C)c1cccc(C=C(C#N)c2ccccc2)c1 [C-4, 2-Propenenitrile, 3-[3-(dimethylamino)phenyl]-2-phenyl-] | 7.62 | 2.57 |  |
| COc1ccc2[nH]c(-c3ccccc3)cc2c1 [C-5, 5-methoxy-2-phenyl-1H-indole] | 7.25 | 3.14 |  |
| Clc1ccccc1-c1nc(-c2ccncc2)no1 [C-10, Pifexole] | 6.48 | 2.72 |  |
| O=C1C(=Cc2ccc([N+](=O)[O-])cc2)Sc2scc(-c3cccc([N+](=O)[O-])c3)[n+]21 [C-42, Thiazolo[2,3-b]thiazolium, 2,3-dihydro-2-[(4-nitrophenyl)methylene]-5-(3-nitrophenyl)-3-oxo-, chloride] |  |  | fold induction at 1 µM ([2]; 24 h): 2.58 |
| COc1ccc2c(n1)Sc1nc3ccccc3nc1N2 [C-35, 7-Methoxy-1,4,6-benzotriazaphenothiazine] |  |  | pEC50 [1, 5]: 6.50; Fold Change (KLF15 reporter activity) [2, 4]: 2.6597 fold |
| 5-Methylbenzo[c]phenanthridin-5-ium-2,3,8,9-tetrol; pyridine; chloride; hydrochloride [C-23] |  |  | pEC50 [1, 5]: 6.53; Fold Change (KLF15 reporter activity) [2, 4]: 3.0541 fold |
| Cc1cccnc1NC(=S)Nc1ncccc1C [C-6, 1,3-bis(3-methylpyridin-2-yl)thiourea] | 6.11 | 2.71 |  |
| NC(=O)c1ccccc1OCC(=O)Nc1ccc(Cl)c(Cl)c1 [C-12, 2-[2-(3,4-Dichloroanilino)-2-oxoethoxy]benzamide] | 7.43 | 3.13 |  |
| Nc1ccc2c(c1)CN1C(=O)c3ccccc3C1=N2 [C-2, Batracyclin] | 7.83 | 3.07 |  |
| O=C(Nc1ccc2ccccc2c1)c1cccc(F)c1 [C-8, 3-fluoro-N-(2-naphthyl)benzamide] | 7.15 | 2.79 |  |
| Cc1cccn2c(=O)[nH]nc12 [C-29] |  |  | pEC50 [1, 5]: 6.26; Fold Change (KLF15 reporter activity) [2, 4]: 2.8700 fold |
| O=C(Nc1cccc([N+](=O)[O-])c1)c1ccc2ccccc2c1O [C-38, 2-<3-Nitro-phenylcarbamoyl>-naphth-1-ol] |  |  | pEC50 [1, 5]: 6.84; Fold Change (KLF15 reporter activity) [2, 4]: 2.6069 fold |
| Cc1nc(-n2nc(-c3ccccc3)cc2-c2ccccc2)sc1C(=O)C=Cc1ccc(Cl)c(Cl)c1 [C-27, 3-(3,4-dichlorophenyl)-1-(2-(3,5-diphenyl-1H-pyrazol-1-yl)-4-methylthiazol-5-yl)prop-2-en-1-one] |  | 2.89 |  |
| CC1=C(O)C(=O)C=C2C1=CC=C1[C@@]2(C)CC[C@@]2(C)[C@@H]3C[C@](C)(C(=O)O)CC[C@]3(C)CC[C@]12C [C-19, Celastrol] |  |  | pEC50 ([1]; Homo sapiens): 7.95; fold induction at 1 µM ([2]; 24 h): 3.28 |
| CN(C)c1ccc(/C=C2\C=Cc3ccccc32)cc1 [C-3, [(4-Dimethylamino)benzylidene]indene] |  |  | pEC50 [1, 5]: 7.75; Fold Change (KLF15 reporter activity) [2, 4]: 2.6455 fold |
| Nc1ccccc1C(=O)Nc1ccc(Cl)cc1Cl [C-11, 2-amino-N-(2,4-dichlorophenyl)benzamide] | 6.15 | 2.64 |  |
| Oc1ccc(-c2nc3ccccc3s2)cc1 [C-1, Phenol,4-(2-benzothiazolyl)] |  |  | pEC50 [1, 5]: 7.00; Fold Change (KLF15 reporter activity) [2, 4]: 3.0083 fold |
| Cc1ccc(NC(=O)c2cccc([N+](=O)[O-])c2O)c([N+](=O)[O-])c1 [C-21, 2-hydroxy-N-(4-methyl-2-nitrophenyl)-3-nitrobenzamide] |  |  | pEC50 ([1]; Homo sapiens): 7.21; fold induction at 1 µM ([2]; 24 h): 3.11 |
| COc1cccc(C=Cc2nccc3ccccc23)c1OC [C-44] |  |  | pEC50 [1, 5]: ~5.74; Fold Change (KLF15 reporter activity) [2, 4]: 2.5631 fold |
| C[C@@H]1C[C@H]2[C@@H]3CCC4=CC(=O)C=C[C@]4(C)[C@@]3(F)[C@@H](O)C[C@]2(C)[C@@]1(O)C(=O)CO [DEX, dexamethasone, reference compound] |  |  | renilla activity in dose-response (human podocytes): trend towards lower renilla activity |
| CCOC(=O)c1sc2[n+](c1C)C(=O)/C(=C/c1ccc([N+](=O)[O-])cc1)S2.[Cl-] [C-32, ethyl (2Z)-5-methyl-2-[(4-nitrophenyl)methylidene]-3-oxo-[1,3]thiazolo[2,3-b][1,3]thiazol-4-ium-6-carboxylate;chloride] |  |  | Fold Change (KLF15 reporter activity) [2, 4]: 2.8360 fold |
| 2-[2-[(2E)-2-[(5Z)-5-(anilinomethylene)-3-ethyl-4-oxo-thiazolidin-2-ylidene[hydrazino]thiazol-5-yl]-N-(o-tolyl)acetamide [C-26] |  |  | pEC50 [1, 5]: 6.31; Fold Change (KLF15 reporter activity) [2, 4]: 3.0168 fold |
| Tin(IV), chlorotriphenyl[1-(4-ethoxyphenyl)-3-cyanoureato]-, hydrogen, trimethylamine [C-17] |  |  | Fold Change (KLF15 reporter activity) [2, 4]: 4.6159 fold |
| CN(C)c1ccc(N=Nc2ccccn2)cc1 [C-37, 4-(2-pyridylazo)-n,n-dimethylaniline] |  |  | pEC50 [1, 5]: 7.57; Fold Change (KLF15 reporter activity) [2, 4]: 2.6148 fold |

Second part, led by results:

| pEC50 [1, 3] | Molecule | fold induction at 1 µM [2, 4] | also measured |
| --- | --- | --- | --- |
| 7.80 | Cc1cc(N(C)C)ccc1/N=N/c1ccc2ncccc2c1 [C-25, N,N,3-trimethyl-4-[(E)-6-quinolylazo]aniline] | 3.02 |  |
| 6.81 | CC(=NNc1nc2ccccc2s1)c1ccncn1 [C-18, 2-(2-(1-(pyrimidin-4-yl)ethylidene)hydrazinyl)benzo[d]thiazole] | 3.29 |  |
| 6.53 | O=C(NC(=S)Nc1ccccn1)c1ccccc1 [C-36, N-(pyridin-2-ylcarbamothioyl)benzamide] | 2.64 |  |
| 6.31 | O=C1C=C/C(=C2/Nc3ccccc3S2)C(O)=C1 [C-33, (4E)-4-(3H-1,3-benzothiazol-2-ylidene)-3-hydroxycyclohexa-2,5-dien-1-one] | 2.75 |  |
| ~5.20 | CN(C)c1ccc(N=Nc2cccc3ccoc23)cc1 [C-28, 7-(p-N,N-Dimethylaminophenylazo)benzofuran] | 2.87 |  |
| 6.67 | COc1cccc2nc3cc(C)c(C)cc3nc12 [C-41, 1-Methoxy-7,8-dimethylphenazine] | 2.59 |  |
| 7.34 | O=C1C(c2cnc3ccccc3n2)=C(O)c2ccccc21 [C-31, 1-Indenone, 3-hydroxy-2-(2-quinoxalinyl)-] | 2.85 |  |
| 7.38 | O=C(Nc1ccc(Nc2ccccc2)cc1)Nc1ccccc1Cl [C-14, 1-(4-Anilinophenyl)-3-(2-chlorophenyl)urea] | 3.03 |  |
| 6.26 | COc1ccc(C(C#N)=Cc2ccccn2)cc1 [C-40, 2-(4-methoxyphenyl)-3-pyridin-2-ylprop-2-enenitrile] | 2.6 |  |
| 7.06 | O=C(Nc1ccc(Cl)c(Cl)c1)Nc1ccccc1O [C-13, N-(3,4-dichlorophenyl)-N′-(2-hydroxyphenyl)urea] | 2.64 |  |
| 6.92 | O=C1Nc2ccccc2C1=NNC(=O)c1ccccc1O [C-34, 2-hydroxy-N′-(2-oxo-1,2-dihydro-3H-indol-3-ylidene)benzohydrazide] | 2.69 |  |
| ~5.16 | Cc1csc(N=Nc2ccc(N(C)C)cc2)[n+]1[O-] [C-39, N,N-dimethyl-4-[(4-methyl-3-oxido-1,3-thiazol-3-ium-2-yl)diazenyl]aniline] | 2.6 |  |
| 7.28 | FC(F)(F)c1cccc(-c2nc3nc(Cl)c(Cl)nc3[nH]2)c1 [C-16, 5,6-dichloro-2-[3-(trifluoromethyl)phenyl]-1H-imidazo[4,5-b]pyrazine] | 2.82 |  |
| 5.57 | Cc1ccc(N/N=C2\C(=N)N(c3ccccc3)N=C2N)cc1 [C-24, (4Z)-5-imino-4-[(4-methylphenyl)hydrazinylidene]-1-phenylpyrazol-3-amine] | 3.03 |  |
| 6.48 | c1ccc(-c2nnc(-c3ccccn3)s2)nc1 [C-30, 2,5-dipyridin-2-yl-1,3,4-thiadiazole] | 2.86 |  |
| 6.06 | Cc1ccc(NNC2=C3N=NN=C3C=CC2=O)cc1 [C-43, 4-[2-(4-methylphenyl)hydrazinyl]benzotriazol-5-one] | 2.57 |  |
| 7.07 | COc1ccc(N=Nc2ccc(N)nc2N)cc1 [C-20, 3-[(4-Methoxyphenyl)azo]-2,6-pyridinediamine] | 3.14 |  |
